The source of these data is patent publication US8999940B2 (Ipsen Pharma S.A.S., priority 2008, dated 2015).

Where no end group is shown, it is not given here. [ ]: non-standard residue; d: D form. Tyr(3-Cl) = N[C@@H](Cc1ccc(O)c(Cl)c1)C(=O)O; Phe(4-CN) = N#Cc1ccc(C[C@H](N)C(=O)O)cc1; Nle = CCCC[C@H](N)C(=O)O; Ac5c = NC1(C(=O)O)CCCC1; Aib = CC(C)(N)C(=O)O Where only a bound is given, the exact number is not on record here.

The nature of series [1]: Human plasma half-life assay. It is filed as in vitro ADME. The settings on record: 37° C., LC-MS, read-out: Human Plasma T½ (converted).
For the next series, the system named is insulin secretion. Put plainly: Determination of in vivo insulin secretion in normal rats. The settings on record: fasted male Sprague Dawley rats, compound iv with glucose (1 g/kg), plasma insulin up to 20 minutes post-glucose. The method, then: D. Determination of in vivo Insulin Secretion in Normal Rats Male Sprague Dawley rats with a body weight of approximately 275-300 g were used as experimental subjects. The day prior to the treatment, right atrial cannulae were implanted via the jugular vein under chlorohydrate. Each cannula was filled with 100 u/ml heparin saline and tied. […] The day of the experiment, aliquots of compound were thawed, brought to room temperature and vortexed thoroughly. […] At time 0, a 500 μl blood sample was withdrawn through the cannula. Next, either the vehicle or the appropriate dose of the compound was injected into the cannula and pushed in with the glucose (1 g/kg) or vehicle solution. Finally, 500 μl of volume of heparinized saline (10 u/ml) was used to push in the remaining glucose through the cannula. […] The plasma was collected from the blood samples by centrifugation, and stored at −20° C. until assay for insulin content.

Series [2] can be described thus: Rat plasma half-life assay. It is filed as in vitro ADME. Conditions: 37° C., LC-MS, read-out: Rat Plasma T½ (converted).
For series [3], the target named is T1, human recombinant GIP receptor (Homo sapiens, UniProt P48546).
T1 construct: expressed in transfected cells; host or cells: CHO-K1 clonal cells (membrane preparation)
T1 sequence (P48546 22-466): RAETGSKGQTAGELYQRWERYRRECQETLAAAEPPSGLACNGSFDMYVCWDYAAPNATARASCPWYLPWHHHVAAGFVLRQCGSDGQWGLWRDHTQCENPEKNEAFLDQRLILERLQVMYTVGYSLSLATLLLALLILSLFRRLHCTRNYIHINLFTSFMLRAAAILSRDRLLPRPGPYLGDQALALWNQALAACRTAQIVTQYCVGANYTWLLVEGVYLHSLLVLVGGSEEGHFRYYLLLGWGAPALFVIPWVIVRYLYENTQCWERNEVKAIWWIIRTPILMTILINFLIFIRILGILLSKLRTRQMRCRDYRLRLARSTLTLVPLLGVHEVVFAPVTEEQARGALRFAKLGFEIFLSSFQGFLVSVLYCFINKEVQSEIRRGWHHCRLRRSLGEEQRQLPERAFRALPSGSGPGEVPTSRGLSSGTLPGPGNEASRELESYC
The series is described as follows: In vitro hGIP receptor binding assay. The method, then:
A. In Vitro hGIP Receptor Binding Assay […] The incubations were terminated by rapid filtration through GF/C filters (pre-soaked in 0.5% polyethylenimine) using a Brandel filtration manifold. Each tube and filter were then washed three times with 5-ml aliquots of ice-cold buffer.

By Ki is commonly meant a dissociation constant, usually derived from enzyme kinetics or from competition with a known ligand. On to “H-[Tyr(3-Cl)][Aib]EGTFISDY[Ac5c]IA[Nle]DKIHQQDFVNWLLAQKGKKNDWKHNITQ-OH [Example 14, (3Cl-Tyr^1, Aib^2, A5c^11, Nle^14)hGIP(1-42)-OH]”, for which the half-life at 0.1 mg/ml in series [1] was 52.1 h; in series [2], 27.4 h. Moreover, in the series with insulin secretion, the “AUC (total insulin secretion)” value worked out at 189.54. The Ki in series [3] worked out at 0.42 nM.
In the case of “[Phe(4-CN)][Aib]EGTFISDY[Ac5c]IAMDKIHQQDFVNWLLAQKGKKNDWKHNITQH-OH [Example 79, (4CN-Phe^1, Aib^2, A5c^11, His^43)hGIP(1-43)-OH]”, the figures for the half-life at 0.1 mg/ml in series [1] and in series [2] were 26.3 h and 21.7 h, respectively. In series [3], the Ki is 5.12 nM.
As to `CCCC[C@H](NC(=O)C(C)(C)NC(=O)[C@@H](NC(=O)[C@H](CO)NC(=O)[C@H](Cc1ccc(O)cc1)NC(=O)[C@H](CC(=O)O)NC(=O)[C@H](CO)NC(=O)[C@@H](NC(=O)[C@H](Cc1ccccc1)NC(=O)[C@@H](NC(=O)CNC(=O)[C@H](CCC(=O)O)NC(=O)C(C)(C)NC(=O)[C@@H](N)Cc1c[nH]cn1)[C@@H](C)O)[C@@H](C)CC)[C@@H](C)CC)C(=O)N[C@@H](CC(=O)O)C(=O)N[C@@H](CCCCN)C(=O)N[C@H](C(=O)N[C@@H](Cc1c[nH]cn1)C(=O)N[C@@H](CCC(N)=O)C(=O)N[C@@H](CCC(N)=O)C(=O)N[C@@H](CC(=O)O)C(=O)N[C@@H](Cc1ccccc1)C(=O)N[C@H](C(=O)N[C@@H](CC(N)=O)C(=O)N[C@@H](Cc1c[nH]c2ccccc12)C(=O)N[C@@H](CC(C)C)C(=O)N[C@@H](CC(C)C)C(=O)N[C@@H](C)C(=O)N[C@@H](CCC(N)=O)C(=O)N[C@@H](CCCCN)C(=O)NCC(=O)N[C@@H](CCCCN)C(=O)N[C@@H](CCCCN)C(=O)N[C@@H](CC(N)=O)C(=O)N[C@@H](CC(=O)O)C(=O)N[C@@H](Cc1c[nH]c2ccccc12)C(=O)N[C@@H](CCCCN)C(=O)N[C@@H](Cc1c[nH]cn1)C(=O)N[C@@H](CC(N)=O)C(=O)N[C@H](C(=O)N[C@H](C(=O)N[C@@H](CCC(N)=O)C(=O)O)[C@@H](C)O)[C@@H](C)CC)C(C)C)[C@@H](C)CC` [Example 10, (His^1, Aib^2, 13, Nle^14)hGIP(1-42)-OH], the half-life at 0.1 mg/ml is 71.4 h in series [1] and 9.2 h in series [2]. Further, the Ki in series [3] amounted to 3.33 nM.
Turning to `CCCC[C@H](NC(=O)[C@H](C)NC(=O)[C@@H](NC(=O)C1(NC(=O)[C@H](Cc2ccc(O)cc2)NC(=O)[C@H](CC(=O)O)NC(=O)[C@H](CO)NC(=O)[C@@H](NC(=O)[C@H](Cc2ccccc2)NC(=O)[C@@H](NC(=O)CNC(=O)[C@H](CCC(=O)O)NC(=O)C(C)(C)NC(=O)[C@@H](N)Cc2cccc(F)c2)[C@@H](C)O)[C@@H](C)CC)CCCC1)[C@@H](C)CC)C(=O)N[C@@H](CC(=O)O)C(=O)N[C@@H](CCCCN)C(=O)N[C@H](C(=O)N[C@@H](Cc1c[nH]cn1)C(=O)N[C@@H](CCC(N)=O)C(=O)N[C@@H](CCC(N)=O)C(=O)N[C@@H](CC(=O)O)C(=O)N[C@@H](Cc1ccccc1)C(=O)N[C@H](C(=O)N[C@@H](CC(N)=O)C(=O)N[C@@H](Cc1c[nH]c2ccccc12)C(=O)N[C@@H](CC(C)C)C(=O)N[C@@H](CC(C)C)C(=O)N[C@@H](C)C(=O)N[C@@H](CCC(N)=O)C(=O)N[C@@H](CCCCN)C(=O)NCC(=O)N[C@@H](CCCCN)C(=O)N[C@@H](CCCCN)C(=O)N[C@@H](CC(N)=O)C(=O)N[C@@H](CC(=O)O)C(=O)N[C@@H](Cc1c[nH]c2ccccc12)C(=O)N[C@@H](CCCCN)C(=O)N[C@@H](Cc1c[nH]cn1)C(=O)N[C@@H](CC(N)=O)C(=O)N[C@H](C(=O)N[C@H](C(=O)N[C@@H](CCC(N)=O)C(=O)O)[C@@H](C)O)[C@@H](C)CC)C(C)C)[C@@H](C)CC` [Example 23, (3F-Phe^1, Aib^2, A5c^11, Nle^14)hGIP(1-42)-OH], the half-life at 0.1 mg/ml in series [1] and in series [2] was greater than 74 h throughout. The Ki in series [3] was 2.7 nM.
Consider `CCCC[C@H](NC(=O)[C@H](C)NC(=O)[C@@H](NC(=O)C1(NC(=O)[C@H](Cc2ccc(O)cc2)NC(=O)[C@H](CC(=O)O)NC(=O)[C@H](CO)NC(=O)[C@@H](NC(=O)[C@H](Cc2ccccc2)NC(=O)[C@@H](NC(=O)CNC(=O)[C@H](CCC(=O)O)NC(=O)C(C)(C)NC(=O)[C@@H](N)Cc2c[nH]cn2)[C@@H](C)O)[C@@H](C)CC)CCCC1)[C@@H](C)CC)C(=O)N[C@@H](CC(=O)O)C(=O)N[C@@H](CCCCN)C(=O)N[C@H](C(=O)N[C@@H](Cc1c[nH]cn1)C(=O)N[C@@H](CCC(N)=O)C(=O)N[C@@H](CCC(N)=O)C(=O)N[C@@H](CC(=O)O)C(=O)N[C@@H](Cc1ccccc1)C(=O)N[C@H](C(=O)N[C@@H](CC(N)=O)C(=O)N[C@@H](Cc1c[nH]c2ccccc12)C(=O)N[C@@H](CC(C)C)C(=O)N[C@@H](CC(C)C)C(=O)N[C@@H](C)C(=O)N[C@@H](CCC(N)=O)C(=O)N[C@@H](CCCCN)C(=O)NCC(=O)N[C@@H](CCCCN)C(=O)N[C@@H](CCCCN)C(=O)N[C@@H](CC(N)=O)C(=O)N[C@@H](CC(=O)O)C(=O)N[C@@H](Cc1c[nH]c2ccccc12)C(=O)N[C@@H](CCCCN)C(=O)N[C@@H](Cc1c[nH]cn1)C(=O)N[C@@H](CC(N)=O)C(=O)N[C@H](C(=O)N[C@H](C(=O)N[C@@H](CCC(N)=O)C(=O)O)[C@@H](C)O)[C@@H](C)CC)C(C)C)[C@@H](C)CC` [Example 12, (His^1, Aib^2, A5c^11, Nle^14)hGIP(1-42)-OH], for which the figures for the half-life at 0.1 mg/ml in series [1] and in series [2] were 82.5 h and 11 h, respectively. In addition, in series [3], the inhibition constant (Ki) came to 3.18 nM.
Consider `CCCC[C@H](NC(=O)[C@H](C)NC(=O)[C@@H](NC(=O)C1(NC(=O)[C@H](Cc2ccc(O)cc2)NC(=O)[C@H](CC(=O)O)NC(=O)[C@H](CO)NC(=O)[C@@H](NC(=O)[C@H](Cc2ccccc2)NC(=O)[C@@H](NC(=O)CNC(=O)[C@H](CCC(=O)O)NC(=O)C(C)(C)NC(=O)[C@@H](N)Cc2cc(F)c(F)c(F)c2)[C@@H](C)O)[C@@H](C)CC)CCCC1)[C@@H](C)CC)C(=O)N[C@@H](CC(=O)O)C(=O)N[C@@H](CCCCN)C(=O)N[C@H](C(=O)N[C@@H](Cc1c[nH]cn1)C(=O)N[C@@H](CCC(N)=O)C(=O)N[C@@H](CCC(N)=O)C(=O)N[C@@H](CC(=O)O)C(=O)N[C@@H](Cc1ccccc1)C(=O)N[C@H](C(=O)N[C@@H](CC(N)=O)C(=O)N[C@@H](Cc1c[nH]c2ccccc12)C(=O)N[C@@H](CC(C)C)C(=O)N[C@@H](CC(C)C)C(=O)N[C@@H](C)C(=O)N[C@@H](CCC(N)=O)C(=O)N[C@@H](CCCCN)C(=O)NCC(=O)N[C@@H](CCCCN)C(=O)N[C@@H](CCCCN)C(=O)N[C@@H](CC(N)=O)C(=O)N[C@@H](CC(=O)O)C(=O)N[C@@H](Cc1c[nH]c2ccccc12)C(=O)N[C@@H](CCCCN)C(=O)N[C@@H](Cc1c[nH]cn1)C(=O)N[C@@H](CC(N)=O)C(=O)N[C@H](C(=O)N[C@H](C(=O)N[C@@H](CCC(N)=O)C(=O)O)[C@@H](C)O)[C@@H](C)CC)C(C)C)[C@@H](C)CC` [Example 22, (3,4,5F-Phe^1, Aib^2, A5c^11, Nle^14)hGIP(1-42)-OH], for which the values for the half-life at 0.1 mg/ml in series [1] and in series [2] were greater than 74 h and 69.3 h, respectively. Besides, the Ki in series [3] came to 31.1 nM.
As for `CC[C@H](C)[C@H](NC(=O)[C@H](CCCCN)NC(=O)[C@H](CC(=O)O)NC(=O)C1(NC(=O)[C@H](C)NC(=O)[C@@H](NC(=O)C2(NC(=O)[C@H](Cc3ccc(O)cc3)NC(=O)[C@H](CC(=O)O)NC(=O)[C@H](CO)NC(=O)[C@@H](NC(=O)[C@H](Cc3ccccc3)NC(=O)[C@@H](NC(=O)CNC(=O)[C@H](CCC(=O)O)NC(=O)C(C)(C)NC(=O)[C@@H](N)Cc3ccc(O)c(OC)c3)[C@@H](C)O)[C@@H](C)CC)CCCC2)[C@@H](C)CC)CCCC1)C(=O)N[C@@H](Cc1c[nH]cn1)C(=O)N[C@@H](CCC(N)=O)C(=O)N[C@@H](CCC(N)=O)C(=O)N[C@@H](CC(=O)O)C(=O)N[C@@H](Cc1ccccc1)C(=O)N[C@H](C(=O)N[C@@H](CC(N)=O)C(=O)N[C@@H](Cc1c[nH]c2ccccc12)C(=O)N[C@@H](CC(C)C)C(=O)N[C@@H](CC(C)C)C(=O)N[C@@H](C)C(=O)N[C@@H](CCC(N)=O)C(=O)N[C@@H](CCCCN)C(=O)NCC(=O)N[C@@H](CCCCN)C(=O)N[C@@H](CCCCN)C(=O)N[C@@H](CC(N)=O)C(=O)N[C@@H](CC(=O)O)C(=O)N[C@@H](Cc1c[nH]c2ccccc12)C(=O)N[C@@H](CCCCN)C(=O)N[C@@H](Cc1c[nH]cn1)C(=O)N[C@@H](CC(N)=O)C(=O)N[C@H](C(=O)N[C@H](C(=O)N[C@@H](CCC(N)=O)C(=O)N[C@@H](Cc1c[nH]cn1)C(=O)O)[C@@H](C)O)[C@@H](C)CC)C(C)C` [Example 74, (3MeO-Tyr^1, Aib^2, A5c^11, 14, His^43)hGIP(1-43)-OH], the half-life at 0.1 mg/ml in series [1] was greater than 50 h; in series [2], 12.8 h. Moreover, the Ki in series [3] worked out at 9.34 nM.
